In paper PMC5775280, “Functional Characterization and Signaling Systems of Corazonin and Red Pigment Concentrating Hormone in the Green Shore Crab, Carcinus maenas” (Frontiers in Neuroscience, 2018):
Peptide text beside a SMILES is read from it.

How the values were obtained:
[1] = Hemolymph glucose levels after peptide injection; assay type: in vivo, Carcinus maenas; conditions: injection 100, 10 pmol per crab
Procedure: (§1) Adipokinetic and glucose mobilizing activity of […] and ACP were performed by measurement of triglycerides in hemolymph ([…] et al., [2014]) and glucose (Chung and Webster, [1996]). Hemolymph samples (ca. 100 μl) were taken from crabs injected with each peptide at 0 and 90 min, and subsequently assayed.

[2] = test system: red and black epidermal chromatophores, dactyl of the 5th walking leg; test: Chromatophore pigment migration bioassay in vivo; parameters: species or system Carcinus maenas; conditions: for pigment migration (concentration) in red and black epidermal chromatophores: injection after 40 min dispersion with 5 pmol PDH, 0.1–100 pmol/crab for RPCH or AKH, 100 pmol/crab for CRZ or ACP, scored 5 and 20 min after injection
Procedure: Pigmentary effector activity of […], Locusta migratoria AKH-I, and ACP were measured in vivo, using small (15-20 mm carapace width) C. maenas. Crabs were firstly adapted to a white background, light intensity 300 lx for 1 h. Pigment dispersion of red and black chromatophores in the […] of the 5th walking leg were microscopically observed and indices of dispersion scored according to Hogben and Slome ([1931]). Red and black chromatophores were firstly fully dispersed by injection of 5 pmol C. maenas pigment dispersing hormone ([…]) in 10 μl saline into the hypobranchial sinus, using hand-drawn glass microcapillaries. Chromatophore dispersion indices were scored at 0, 20, 40 min. Peptides were then injected and chromatophores subsequently scored after 5 and 20 min.

[3] = test system: semi-isolated heart; test: Cardioactivity on semi-isolated heart preparations; parameters: species or system Carcinus maenas; conditions: superfusion
Procedure: Cardioactivity of […], and ACP was performed on semi-isolated heart preparations of C. maenas. Crabs (ca. 65 mm carapace width) were ice-anesthetized and rapidly decerebrated before removing all limbs and the dorsal carapace to expose the heart and pericardial cavity. The heart was connected to a force transducer (MLT0210/A) via a micro fishing hook (size 28) and fine nylon (0.08 mm) monofilament. Connection to a PC with Chart 4.0 was via a Bridge Pod (ML301) and Powerlab 4/20 (AD Instruments Pty Ltd, Castle Hill, NSW, Australia). Transducer gain was set at maximum sensitivity (200 μV). Heart preparations were initially perfused with C. maenas physiological saline (Saver et al., [1999]) at room temperature (20°C). Once a stable heart output was achieved, hearts were firstly perfused with 1 ml saline, followed by increasing concentrations of peptides, applied in 1 ml. Crustacean cardioactive peptide (CCAP) (Bachem, Bubendorf, Switzerland), or proctolin (Sigma, Poole, UK) were positive controls (10^-11-10^-7 M). Test peptides ([…]) were perfused at 10^-8-10^-6 M for approximately 2 min at each concentration.

[4] = test system: putative adipokinetic hormone/corazonin-related peptide receptor (ACPR); test: Receptor assay with putative ACPR; assay type: cell-based, Carcinus maenas
Procedure: (§2) Chinese hamster ovary (CHO-K1) cells containing stably expressed apoaequorin (Perkin Elmer, Boston, MA) and either Gα16 or Gq subunit (control cells) were cultured in Dulbecco's Modified Eagle Medium (DMEM) F-12 Nutrient Mixture GlutaMax (Gibco®) supplemented with 10% fetal bovine serum (Gibco®). Cells were maintained in vented T75 flasks at 37°C in 5% CO2.
Cells grown in a monolayer to approximately 60% confluency in T75 flasks were transfected with pcDNA3.1 constructs using FugeneHD (Promega) according to the manufacturer's recommendations. Briefly, transfection medium was prepared by combining 800 μl Opti-MEM® (Gibco) with 10 μg vector and 30 μl Fugene HD in a 2 ml polystyrene tube and incubated for 10 min at room temperature. […]
On the day of the assay, cells were detached from the culture flask by incubating for 12 min in 5 ml 0.2% EDTA in PBS. […] Cell suspensions were gently stirred and injected in 50 μl aliquots into each well using a Mithras LB 940 microplate reader (Berthold Technologies, Bad-Wildbad, Germany) and light emission (Ca^2+ response) recorded for 30 s. Cells were then lysed by injection of 0.3% Triton-X in BSA medium and light emission recorded for a further 10 s to measure total Ca^2+ response. […] Data was analyzed using MikroWin v5.18 (Mikrotek Laborsysteme GmbH) and SigmaPlot v.13 (Systat Software, Inc.). […]

[5] = Hemolymph triglyceride levels after peptide injection; assay type: in vivo, Carcinus maenas; conditions: lipid mobilization bioassay
[6] = biological target: T1, C. maenas RPCHR (red pigment concentrating hormone receptor) (Carcinus maenas, UniProt A0A2L0WQF2); test: Aequorin luminescence Ca2+ mobilization in CHO-K1-Aeq cells transiently expressing RPCHR; assay type: cell-based; conditions: for EC50: CHO-K1-Aeq cells (without Gα16) transiently expressing RPCHR, luminescence response normalized to total Ca2+ response, dose response curves, means of n = 4; for binding to / activation of RPCHR: micromolar concentrations
T1 sequence (A0A2L0WQF2 1-529): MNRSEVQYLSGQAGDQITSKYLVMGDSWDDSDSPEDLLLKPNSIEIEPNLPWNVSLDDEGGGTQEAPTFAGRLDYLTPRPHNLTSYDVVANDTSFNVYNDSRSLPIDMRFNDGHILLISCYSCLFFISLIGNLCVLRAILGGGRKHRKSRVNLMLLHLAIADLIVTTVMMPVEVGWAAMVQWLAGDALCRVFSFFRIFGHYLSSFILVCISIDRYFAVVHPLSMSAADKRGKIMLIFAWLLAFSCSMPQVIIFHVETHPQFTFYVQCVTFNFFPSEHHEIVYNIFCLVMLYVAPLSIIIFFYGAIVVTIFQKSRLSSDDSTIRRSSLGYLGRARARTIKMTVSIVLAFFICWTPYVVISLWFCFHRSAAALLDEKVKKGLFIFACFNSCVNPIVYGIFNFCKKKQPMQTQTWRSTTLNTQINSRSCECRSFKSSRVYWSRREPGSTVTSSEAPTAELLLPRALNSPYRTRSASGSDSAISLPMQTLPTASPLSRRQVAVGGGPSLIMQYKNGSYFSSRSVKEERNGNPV
Procedure: as §2
(§3) Cells grown in a monolayer to approximately 60% confluency in T75 flasks were transfected with pcDNA3.1 constructs using FugeneHD (Promega) according to the manufacturer's recommendations. Briefly, transfection medium was prepared by combining 800 μl Opti-MEM® (Gibco) with 10 μg vector and 30 μl Fugene HD in a 2 ml polystyrene tube and incubated for 10 min at room temperature. The transfection reagent was added to 5 ml of fresh culture media and the cells incubated overnight at 37°C in 5% CO2. After 24 h, an additional 10 ml of culture media were added to the flasks and the cells returned to 37°C at 5% CO2 for a further overnight incubation.
(§4) On the day of the assay, cells were detached from the culture flask by incubating for 12 min in 5 ml 0.2% EDTA in PBS. The cells were washed with 10 ml DMEM clear DMEM/F-12 containing L-glutamine, 15 mM HEPES and moved to 50 ml centrifuge tubes. Cells were centrifuged for 5 min at 260 g and resuspended to a concentration of 5 × 10^6 cells ml^−1 in 0.2 μm filtered BSA medium (DMEM/F-12 containing L-glutamine, 15 mM HEPES + 0.1% BSA). Coelenterazine h (Invitrogen, Paisley, UK) was added to a concentration of 5 μM and the cells incubated for 4 h in the dark at room temperature whilst gently rocking. The cells were diluted 10-fold and incubated for a further 60 min before use in the assay. Synthetic peptides (GeneCust, Dudelange, Luxembourg) were reconstituted in 30% acetonitrile, dried in small aliquots by vacuum centrifugation and subsequently redissolved in BSA medium. Fifty microliter aliquots were then dispensed into quadruplicate wells of a white 96-well plate (OptiPlate, PerkinElmer). Cell suspensions were gently stirred and injected in 50 μl aliquots into each well using a Mithras LB 940 microplate reader (Berthold Technologies, Bad-Wildbad, Germany) and light emission (Ca^2+ response) recorded for 30 s. Cells were then lysed by injection of 0.3% Triton-X in BSA medium and light emission recorded for a further 10 s to measure total Ca^2+ response. BSA medium was used for blank measurements (6 replicate wells per plate) and mock transfection with empty vectors carried out for negative controls. Data was analyzed using MikroWin v5.18 (Mikrotek Laborsysteme GmbH) and SigmaPlot v.13 (Systat Software, Inc.). Receptor response was normalized against total Ca^2+ response.

[7] = Hemolymph triglyceride levels after peptide injection; assay type: in vivo, Carcinus maenas
Procedure: as §1

[8] = biological target: T2, C. maenas CRZR (corazonin receptor) (Carcinus maenas, UniProt A0A2L0WQE5); test: Aequorin luminescence Ca2+ mobilization in CHO-K1-Aeq cells transiently expressing CRZR; assay type: cell-based; conditions: for EC50: CHO-K1-Aeq cells (without Gα16) transiently expressing CRZR, luminescence response normalized to total Ca2+ response, dose response curves, means of n = 4; for bioluminescent response at CRZR compared with the homologous crab/insect ligand (Arg^7-CRZ): several independent experiments
T2 sequence (A0A2L0WQE5 1-617): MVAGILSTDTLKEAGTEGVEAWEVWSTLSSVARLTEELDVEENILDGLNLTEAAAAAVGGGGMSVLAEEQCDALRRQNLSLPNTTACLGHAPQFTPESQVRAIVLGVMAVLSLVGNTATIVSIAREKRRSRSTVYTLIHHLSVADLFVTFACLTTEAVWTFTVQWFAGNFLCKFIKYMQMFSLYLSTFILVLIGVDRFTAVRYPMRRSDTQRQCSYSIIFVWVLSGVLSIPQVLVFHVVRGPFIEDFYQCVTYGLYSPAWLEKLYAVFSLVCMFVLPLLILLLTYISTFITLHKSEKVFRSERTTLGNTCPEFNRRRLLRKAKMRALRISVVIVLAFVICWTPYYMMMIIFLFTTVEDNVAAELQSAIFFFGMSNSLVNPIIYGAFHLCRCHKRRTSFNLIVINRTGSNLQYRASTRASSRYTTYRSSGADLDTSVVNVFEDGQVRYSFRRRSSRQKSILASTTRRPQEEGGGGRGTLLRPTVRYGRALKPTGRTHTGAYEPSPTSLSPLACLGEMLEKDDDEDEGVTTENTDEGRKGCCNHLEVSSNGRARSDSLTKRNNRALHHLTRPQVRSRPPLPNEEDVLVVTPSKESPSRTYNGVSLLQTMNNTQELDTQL
Procedure: as §2, §3, §4

Compound: CC[C@H](C)[C@H](NC(=O)[C@@H]1CCC(=O)N1)C(=O)N[C@H](C(=O)N[C@@H](Cc1ccccc1)C(=O)N[C@@H](CO)C(=O)N[C@@H](CCCNC(=N)N)C(=O)N[C@@H](CO)C(=O)N[C@@H](Cc1c[nH]c2ccccc12)C(=O)N[C@H](C(=O)N1CCC[C@H]1C(=O)N[C@@H](CCC(N)=O)C(N)=O)C(C)C)[C@@H](C)O [ACP] (HELM PEPTIDE1{[Glp].I.T.F.S.R.S.W.V.P.Q.[am]}$$$$V2.0)
- activity on circulating glucose [1]: neither CRZ nor ACP exhibited any biological activity
- pigment migration (concentration) in red and black epidermal chromatophores [2]: completely ineffective
- cardioacceleratory effect on semi-isolated hearts ([3]; concentrations up to 10^−6 M, 20°C): completely without cardioacceleratory effect
- binding to putative ACPR [4]: did not bind
- effect on hemolymph diacylglycerol levels [5]: completely without effect
- EC50 [6]: > 20000 nM
- binding to / activation of RPCHR [6]: vanishingly small dose-dependent binding
- hemolymph triglyceride levels, 0 min ([7]; injection 100 pmol per crab, 0 min, mean ± 1 SEM, n = 6, SEM): 1.47 ± 0.44 µg/µL
- hemolymph triglyceride levels, 90 min ([7]; injection 100 pmol per crab, 90 min, mean ± 1 SEM, n = 6, no significant change over 90 min, SEM): 1.28 ± 0.34 µg/µL
- activity on circulating triglycerides ([7]; injection 100, 10 pmol per crab): neither CRZ nor ACP exhibited any biological activity

Compound: C[C@@H](O)[C@H](NC(=O)[C@H](Cc1c[nH]c2ccccc12)NC(=O)CNC(=O)[C@H](Cc1c[nH]cn1)NC(=O)[C@H](CO)NC(=O)[C@H](Cc1ccc(O)cc1)NC(=O)[C@H](CCC(N)=O)NC(=O)[C@H](Cc1ccccc1)NC(=O)[C@@H](NC(=O)[C@@H]1CCC(=O)N1)[C@@H](C)O)C(=O)N[C@@H](CC(N)=O)C(N)=O [His^7-CRZ] (HELM PEPTIDE1{[Glp].T.F.Q.Y.S.H.G.W.T.N.[am]}$$$$V2.0)
- EC50 [8]: 0.3 nM
- bioluminescent response at CRZR compared with the homologous crab/insect ligand (Arg^7-CRZ) [8]: somewhat higher bioluminescent response at lower doses

Compound: CC(C)C[C@H](NC(=O)[C@@H]1CCC(=O)N1)C(=O)N[C@@H](CC(N)=O)C(=O)N[C@@H](Cc1ccccc1)C(=O)N[C@H](C(=O)N1CCC[C@H]1C(=O)N[C@@H](CC(N)=O)C(=O)N[C@@H](Cc1c[nH]c2ccccc12)C(=O)NCC(=O)N[C@H](C(N)=O)[C@@H](C)O)[C@@H](C)O [Lom AKH-1, reference compound] (HELM PEPTIDE1{[Glp].L.N.F.T.P.N.W.G.T.[am]}$$$$V2.0)
- pigment migration (concentration) in red and black epidermal chromatophores [2]: slightly less effective compared to RPCH
- EC50 [6]: 0.07 nM

Compound: C[C@@H](O)[C@H](NC(=O)[C@H](Cc1c[nH]c2ccccc12)NC(=O)CNC(=O)[C@H](Cc1c[nH]cn1)NC(=O)[C@H](CO)NC(=O)[C@H](Cc1ccc(O)cc1)NC(=O)[C@@H](NC(=O)[C@H](Cc1ccccc1)NC(=O)[C@@H](NC(=O)[C@@H]1CCC(=O)N1)[C@@H](C)O)[C@@H](C)O)C(=O)N[C@@H](CC(N)=O)C(N)=O [Thr^4, His^7-CRZ] (HELM PEPTIDE1{[Glp].T.F.T.Y.S.H.G.W.T.N.[am]}$$$$V2.0)
- EC50 [8]: 0.14 nM
- bioluminescent response at CRZR compared with the homologous crab/insect ligand (Arg^7-CRZ) [8]: somewhat higher bioluminescent response at lower doses

Compound: GnRH: evolutionarily-related peptide (mammalian) GnRH, gonadotropin releasing hormone [reference compound]
- activation of CRZR ([8]; even at micromolar concentrations): Neither receptor was activated
- binding to / activation of RPCHR [6]: Neither receptor was activated

Compound: NSELINSILGLPKVMNDA-NH2 [PDH, C. maenas pigment dispersing hormone, reference compound]
- pigment dispersion of chromatophores ([2]; injection of 5 pmol, over 40 min): expansion of both red and black chromatophores

Compound: proctolin [reference compound]
- kind of response on semi-isolated hearts ([3]; positive control): very pronounced inotropic response
- threshold response on semi-isolated hearts ([3]; positive controls, CCAP: most sensitive preparations): about 10^−9 M
